Assay results from US20190160035A1, “METHOD OF TREATMENT” (QBIOTICS LIMITED, priority 2016, published 2019).
Values joined by “and” are separate entries in the source; they are usually repeats but may differ in a detail not shown here. Equal entries are not always repeated.

Legend:
[1] = Example 2: body weights, clinical examinations and adverse events (VCOG-CTCAE); type: in vivo, dogs; design: key to Local swelling at treatment site: VCOG-CTCAE Grade classification / Pain associated with treatment site: VCOG-CTCAE Grade classification / Transient tachypnoea: VCOG-CTCAE Grade classification / Transient lethargy: VCOG-CTCAE Grade classification / Transient tachycardia: VCOG-CTCAE Grade classification / Transient elevated blood pressure reading: VCOG-CTCAE Grade classification / Transient salivation: VCOG-CTCAE Grade classification / Emesis: VCOG-CTCAE Grade classification / Wound sinus: VCOG-CTCAE Grade classification: ‘mild’ VCOG-CTCAE classification Grade 1 with no intervention required
Method: Body weights were collected on each enrolled dog at screening, immediately pre-treatment, at approximately 24 hours, 48 hours post-treatment, and at 7(+1) days, 14(+1) days and 21(+2) days post treatment. The percent bodyweight change is calculated as the difference between immediate pre-treatment and Day 21 (+2) post-treatment values. A positive value indicates weight gain, a negative value indicates weight loss.
Clinical parameters such as rectal temperature (° C.), heart rate (HR) per minute, respiratory rate (RR) per minute, capillary refill time (CRT) (sec), systolic and diastolic blood pressure (mmHg), and mucosal colour were collected on each enrolled dog at screening, immediately pre-treatment, at approximately 24 hours, 48 hours post-treatment, and at 7(±1), 14(±1) and 21(±2) days post treatment. With each parameter evaluated for trends over time, and in context with all other contemporaneously collected parameters, the clinical parameter data is deemed unremarkable for all trial dogs.
Dogs were evaluated for adverse events (AEs) on Days 0 (pre-treatment), 1, 2, 7(±1), 14(±1) and 21(±2) as well as interim timepoints if needed. An AE was defined as any unfavorable and unintended sign, symptom, or disease temporally associated with the use of Compound 1, whether or not related to the product (VCOG-CTCAE 2011).

[2] = Example 1: safety evaluation (clinical parameters, adverse events graded by VCOG-CTCAE); type: in vivo, Canis lupus familiaris (dog)
Method: Clinical parameters such as bodyweight (kg), rectal temperature (° C.), heart rate (HR) per minute, respiratory rate (RR) per minute, general demeanor and body function (e.g. eating, drinking, urine and stools), were collected on each enrolled dog at screening, immediately pre-treatment, at approximately 2-4 and 24 hours post-treatment, and at 7(±2), 14(±2) and 28(±2) days post treatment. An adverse event (AE) was defined as any unfavorable and unintended sign, symptom, or disease temporally associated with the use of the drug, whether or not related to the product (VCOG-CTCAE, 2011). AE were graded according to the VCOG-CTCAE classification which is a descriptive severity scale (grade system) used for AE reporting in dogs treated with antineoplastic therapy.
With the exception of swelling and pain, local tissue pathology as a result of treatment (i.e. tumor necrosis) was not considered an adverse event (AE). AEs such as rapid breathing, mild tachycardia and post treatment lethargy are generally considered to be the result of the powerful local inflammatory response and systemic activation of the dog's immune response during the treatment response phase. In this study, 44 AEs were identified in 15 event types. The majority of identified AEs (28 out of 44; […]) were represented by the ‘mild’ VCOG-CTCAE classification Grade 1 with no intervention required. With the exception of dog C03-T-07, a level of minimal medical intervention was required in only 3 cases. […] With the exception of dog C03-T-07, all reported AEs were transient in nature—resolved by 24-48 h post treatment in the majority of cases.

[3] = tested on: cutaneous MCT or subcutaneous MCT; assay: Example 4: long term follow up of Example 1 dogs for tumor recurrence; type: in vivo; for Tumor recurrence at case follow-up, approx. month 2 after last treatment: key: NTR = no tumor recurrence; TR = tumor recurrence; for Tumor recurrence at case follow-up, approx. month 3 after last treatment: key: NTR = no tumor recurrence; TR = tumor recurrence; for Tumor recurrence at case follow-up, approx. month 4 after last treatment: key: NTR = no tumor recurrence; TR = tumor recurrence; for Tumor recurrence at case follow-up, approx. month 5 after last treatment: key: NTR = no tumor recurrence; TR = tumor recurrence
Method: The dogs of in Example 1, treated with 1.0 mg Compound 1 per mL in 40% propylene glycol solution (0.4 mL/cm^3 tumor), were followed up post-treatment.
The attending veterinarian advised dog C03-T-04 enter a new treatment program for residual tissue mass treatment due to a putative immune deficiency, and dog C03-T-07 died on Day 4 post treatment.

[4] = cohort 3, 0.2 mg/mL, out of 7 dogs

Compound: C/C=C(\C)C(=O)O[C@@H]1[C@@H](C)[C@@]2(O)[C@H]([C@@H]3C(C)(C)[C@]13OC(=O)[C@@H](C)CC)[C@@H]1O[C@]1(CO)[C@@H](O)[C@]1(O)C(=O)C(C)=C[C@H]12 [Compound 1, 12-tigloyl-13-(2-methylbutanoyl)-6,7-epoxy-4,5,9,12,13,20-hexahydroxy-1-tigliaen-3-one]
- Pain associated with treatment site: Incidence (%) ([1]; Grade 1, all patients (n = 27)): 14.8%
- Pain associated with treatment site: No. of events ([1]; Grade 1, all patients (n = 27)): 4
- Pain associated with treatment site (oral analgesic): Incidence (%) ([1]; Grade 2, all patients (n = 27)): 22.2%
- Pain associated with treatment site (oral analgesic): No. of events ([1]; Grade 2, all patients (n = 27)): 6
- Bilateral otitis externa (oral antibiotic): Incidence (%) ([1]; all patients (n = 27)): 3.7%
- Bilateral otitis externa (oral antibiotic): No. of events ([1]; all patients (n = 27)): 1
- Bilateral otitis externa (oral antibiotic): VCOG-CTCAE Grade classification ([1]; all patients (n = 27)): 2
- Corneal ulcer (antibiotic ointment and oral analgesic): Incidence (%) ([1]; all patients (n = 27)): 3.7%
- Corneal ulcer (antibiotic ointment and oral analgesic): No. of events ([1]; all patients (n = 27)): 1
- Corneal ulcer (antibiotic ointment and oral analgesic): VCOG-CTCAE Grade classification ([1]; all patients (n = 27)): 2
- Emesis: Incidence (%) ([1]; all patients (n = 27)): 7.4%
- Emesis: No. of events ([1]; all patients (n = 27)): 2
- Emesis: VCOG-CTCAE Grade classification ([1]; all patients (n = 27)): 1
- Flatulence (oral antibiotic): Incidence (%) ([1]; all patients (n = 27)): 3.7%
- Flatulence (oral antibiotic): No. of events ([1]; all patients (n = 27)): 1
- Flatulence (oral antibiotic): VCOG-CTCAE Grade classification ([1]; all patients (n = 27)): 2
- Local swelling at treatment site: Incidence (%) ([1]; all patients (n = 27)): 81.5%
- Local swelling at treatment site: No. of events ([1]; all patients (n = 27)): 22
- Local swelling at treatment site: VCOG-CTCAE Grade classification ([1]; all patients (n = 27)): 1
- Number of AEs of ‘mild’ VCOG-CTCAE Grade 1 (no intervention required) ([1]; all patients (n = 27)): 52
- Number of AEs requiring minimal medical intervention or additional analgesic therapy ([1]; all patients (n = 27)): 12
- Pain associated with treatment site (oral analgesic): VCOG-CTCAE Grade classification ([1]; all patients (n = 27)): 2
- Seborrhoea (oral antibiotic): Incidence (%) ([1]; all patients (n = 27)): 3.7%
- Seborrhoea (oral antibiotic): No. of events ([1]; all patients (n = 27)): 1
- Seborrhoea (oral antibiotic): VCOG-CTCAE Grade classification ([1]; all patients (n = 27)): 2
- Transient elevated blood pressure reading: Incidence (%) ([1]; all patients (n = 27)): 3.7%
- Transient elevated blood pressure reading: No. of events ([1]; all patients (n = 27)): 1
- Transient elevated blood pressure reading: VCOG-CTCAE Grade classification ([1]; all patients (n = 27)): 1
- Transient lethargy: Incidence (%) ([1]; all patients (n = 27)): 18.5%
- Transient lethargy: No. of events ([1]; all patients (n = 27)): 5
- Transient lethargy: VCOG-CTCAE Grade classification ([1]; all patients (n = 27)): 1
- Transient salivation: Incidence (%) ([1]; all patients (n = 27)): 3.7%
- Transient salivation: No. of events ([1]; all patients (n = 27)): 1
- Transient salivation: VCOG-CTCAE Grade classification ([1]; all patients (n = 27)): 1
- Transient tachycardia: Incidence (%) ([1]; all patients (n = 27)): 7.4%
- Transient tachycardia: No. of events ([1]; all patients (n = 27)): 2
- Transient tachycardia: VCOG-CTCAE Grade classification ([1]; all patients (n = 27)): 1
- Transient tachypnoea: Incidence (%) ([1]; all patients (n = 27)): 51.9%
- Transient tachypnoea: No. of events ([1]; all patients (n = 27)): 14
- Transient tachypnoea: VCOG-CTCAE Grade classification ([1]; all patients (n = 27)): 1
- Wound infection (oral antibiotic): Incidence (%) ([1]; all patients (n = 27)): 7.4%
- Wound infection (oral antibiotic): No. of events ([1]; all patients (n = 27)): 2
- Wound infection (oral antibiotic): VCOG-CTCAE Grade classification ([1]; all patients (n = 27)): 2
- Wound sinus: Incidence (%) ([1]; all patients (n = 27)): 3.7%
- Wound sinus: No. of events ([1]; all patients (n = 27)): 1
- Wound sinus: VCOG-CTCAE Grade classification ([1]; all patients (n = 27)): 1
- Total number of AEs identified ([1]; all patients (n = 27), 15 event types): 64
- Clinical parameter data (temperature, HR, RR, CRT, blood pressure, mucosal colour) ([1]; all trial dogs, screening to Day 21): unremarkable
- Number of dogs that lost weight ([1]; cohort 1, 1.0 mg/mL): 3
- Number of dogs that gained weight during the trial ([1]; cohort 1, 1.0 mg/mL, out of 10 dogs, pre-treatment to Day 21): 6
- Largest recorded weight loss ([1]; cohort 1, dog NVC-103): 3.9%
- Number of dogs that lost body weight ([1]; cohort 2, 0.5 mg/mL, out of 10 dogs): 9
- Largest recorded weight loss ([1]; cohort 2, dog GCV-204): 5.6%
- Number of dogs that gained weight [1, 4]: 3
- Number of dogs that lost weight [1, 4]: 4
- Largest recorded weight loss ([1]; cohort 3, dog NVC-304): 9.2%
- Body weight gain ([1]; dog NVC-102, cohort 1): 15%
- Pain associated with treatment site: VCOG-CTCAE Grade classification ([1]; no intervention, all patients (n = 27)): 1
- Number of AEs identified ([2]; 12 dogs, 15 event types): 44
- Share of AEs of VCOG-CTCAE Grade 1 ([2]; 28 out of 44): 61.3%
- Dogs that died during the course of the study ([2]; dog C03-T-07, Day 4, veterinarian did not believe Compound 1 directly contributed): 1
- Time by which reported AEs resolved post treatment ([2]; majority of cases, except dog C03-T-07): 24 to 48 h
- Number of AEs of ‘mild’ VCOG-CTCAE Grade 1 (no intervention required) ([2]; out of 44 AEs): 28
- Cases requiring minimal medical intervention ([2]; with the exception of dog C03-T-07): 3
- Time post treatment at which tumor recurrence was identified ([3]; 196: dog C03-N-01 (approx. 6 months), 359: dog C03-T-02 (approx. 12 months)): 196 days and 359 days
- Time the dog remained tumor free post treatment ([3]; dog C03-T-06, approx. 8 months, until euthanased for diabetes and kidney failure): 265 days
- Number of dogs with residual tumor mass on Days 28-29 post treatment (retreated) ([3]; dogs C03-N-03, C03-T-01, C03-T-03): 3
- Tumor recurrence post-repeat treatment ([3]; dogs C03-N-03, C03-T-01, C03-T-03, examined out to 389, 339 and 346 days): None of these dogs exhibited tumor recurrence
- Number of dogs treated successfully with a single treatment and no tumor recurrence within the duration of assessment ([3]; of ten dogs available for follow up): 5
- Tumor recurrence at case follow-up, approx. month 1 after last treatment ([3]; one value per dog): NTR (3×) and TR (TR = tumor recurrence)
- Tumor recurrence at case follow-up, approx. month 2 after last treatment ([3]; one value per dog): NTR
- Tumor recurrence at case follow-up, approx. month 3 after last treatment ([3]; one value per dog): NTR
- Tumor recurrence at case follow-up, approx. month 4 after last treatment ([3]; one value per dog): NTR
- Tumor recurrence at case follow-up, approx. month 5 after last treatment ([3]; one value per dog): NTR
- Tumor recurrence at case follow-up, approx. month 6 after last treatment ([3]; one value per dog): NTR
- Tumor recurrence at case follow-up, approx. month 7 after last treatment ([3]; one value per dog): NTR
- Tumor recurrence at case follow-up, approx. month 9 after last treatment ([3]; one value per dog): NTR
- Tumor recurrence at case follow-up, approx. month 11 after last treatment ([3]; one value per dog): NTR
- Tumor recurrence at case follow-up, approx. month 12 after last treatment ([3]; one value per dog): TR (TR = tumor recurrence) and NTR (4×)
- Repeat treatment required ([3]; one value per dog, Example 1 dogs): Day 28 (2×) and Nil (7×) and Day 29
